Measured values reported in ChEMBL document CHEMBL1201862, “PubChem BioAssay data set” (2004).
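Results reflect a 48-hour exposure of cells in 96-well plates to compound at five concentrations. The concentration for 50% growth inhibition is given as GI50.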 Active and inactive are the calls of the source. Cut-off read from the data, not from the text of the source: active = GI50 up to about 1.1 µM and inactive = higher.

Columns and labels:
Experiment in all cases: NCI-60 cell line screen, 48 h
[1] = tested on: Malme-3M
[2] = tested on: 786-0
[3] = tested on: K562
[4] = tested on: HCT-116
[5] = tested on: CAKI-1
[6] = tested on: HOP-92
[7] = tested on: M14
[8] = tested on: UO-31
[9] = tested on: SN12C
[10] = tested on: SNB-75
[11] = tested on: SK-MEL-5
[12] = tested on: SW-620
[13] = tested on: U-251
[14] = tested on: EKVX
[15] = tested on: MOLT-4
[16] = tested on: ACHN
[17] = tested on: NCI-H460

SMILES	GI50 [1]	GI50 [2]	GI50 [3]	GI50 [4]	GI50 [5]	GI50 [6]	GI50 [7]	GI50 [8]	GI50 [9]	GI50 [10]	GI50 [11]	GI50 [12]	GI50 [13]	GI50 [14]	GI50 [15]	GI50 [16]	GI50 [17]
COC[C@@H](/N=C/N1CCc2cc(OC)c(OC)cc2[C@@H]1C)C(C)(C)C	> 100 µM (inactive)	> 100 µM (inactive)	> 100 µM (inactive)	> 100 µM (inactive)	> 100 µM (inactive)	> 100 µM (inactive)	> 100 µM (inactive)	> 100 µM (inactive)	> 100 µM (inactive)	> 100 µM (inactive)	> 100 µM (inactive)	> 100 µM (inactive)	> 100 µM (inactive)	> 100 µM (inactive)	> 100 µM (inactive)	> 100 µM (inactive)	> 100 µM (inactive)
COc1ccc2c(c1)[n+]([O-])c(-c1ccc([N+](=O)[O-])cc1)c(N)[n+]2[O-]	> 100 µM (inactive)	> 100 µM (inactive)	32.6 µM (inactive)	26.6 µM (inactive)	> 100 µM (inactive)	> 100 µM (inactive)	> 100 µM (inactive)	> 100 µM (inactive)	> 100 µM (inactive)	> 100 µM (inactive)	> 100 µM (inactive)	> 100 µM (inactive)	68.1 µM (inactive)	> 100 µM (inactive)	22.3 µM (inactive)	> 100 µM (inactive)	49.5 µM (inactive)
CC(=O)OCC(OC(C)=O)C(OC(C)=O)C(OC(C)=O)C(=O)CNn1c(-c2ccccc2Cl)nc2ccc(Br)cc2c1=O (stereo not given)	> 100 µM (inactive)	> 100 µM (inactive)	44 µM (inactive)	> 100 µM (inactive)	38.3 µM (inactive)	–	> 100 µM (inactive)	85.5 µM (inactive)	36.3 µM (inactive)	59.8 µM (inactive)	57.5 µM (inactive)	> 100 µM (inactive)	87.9 µM (inactive)	> 100 µM (inactive)	34.6 µM (inactive)	> 100 µM (inactive)	> 100 µM (inactive)
O=C1NC2(CCCCC2)C2=C1CCCCC2	> 100 µM (inactive)	> 100 µM (inactive)	> 100 µM (inactive)	> 100 µM (inactive)	> 100 µM (inactive)	> 100 µM (inactive)	> 100 µM (inactive)	> 100 µM (inactive)	> 100 µM (inactive)	> 100 µM (inactive)	> 100 µM (inactive)	> 100 µM (inactive)	> 100 µM (inactive)	> 100 µM (inactive)	> 100 µM (inactive)	> 100 µM (inactive)	> 100 µM (inactive)
O=C(NC1CCC[C@H]1OC(=O)c1ccccc1)c1ccccc1 (stereo not given in full)	0.0489 µM (active)	> 100 µM (inactive)	38 µM (inactive)	81.3 µM (inactive)	85.7 µM (inactive)	25.6 µM (inactive)	> 100 µM (inactive)	16.1 µM (inactive)	66.4 µM (inactive)	10.7 µM (inactive)	37.2 µM (inactive)	> 100 µM (inactive)	> 100 µM (inactive)	> 100 µM (inactive)	30.1 µM (inactive)	> 10 µM (inactive)	> 100 µM (inactive)
Nc1ccccc1S(=O)(=O)N(CC(=O)O)c1ccccc1	> 100 µM (inactive)	> 100 µM (inactive)	> 100 µM (inactive)	–	> 100 µM (inactive)	> 100 µM (inactive)	> 100 µM (inactive)	> 100 µM (inactive)	> 100 µM (inactive)	> 100 µM (inactive)	> 100 µM (inactive)	> 100 µM (inactive)	> 100 µM (inactive)	> 100 µM (inactive)	> 100 µM (inactive)	> 100 µM (inactive)	> 100 µM (inactive)
